The NIST ThermoML archive (doi:10.1016/j.jct.2008.01.018)
Numbers after ± are expanded uncertainties.

Test: refractive index (Na D-line) (dimensionless); mn = molality of the nth substance listed, in mol/kg
Details: 298.15 K, 101 kPa, Liquid, Standard Abbe refractometry

Structure (SMILES): O=P([O-])(O)O.[Na+] [sodium dihydrogen phosphate] + O
- refractive index (m1 = 0.0207): 1.3331 ± 0.0027
- refractive index (m1 = 0.0415): 1.3334 ± 0.0027
- refractive index (m1 = 0.0697): 1.3338 ± 0.0027
- refractive index (m1 = 0.1051): 1.3342 ± 0.0027
- refractive index (m1 = 0.1397): 1.3351 ± 0.0027
- refractive index (m1 = 0.1901): 1.3357 ± 0.0027
- refractive index (m1 = 0.2357): 1.3363 ± 0.0027
- refractive index (m1 = 0.2947): 1.3373 ± 0.0027
- refractive index (m1 = 0.3516): 1.3382 ± 0.0027
- refractive index (m1 = 0.433): 1.3393 ± 0.0027
- refractive index (m1 = 0.5113): 1.3405 ± 0.0027
- refractive index (m1 = 0.5842): 1.3416 ± 0.0027
- refractive index (m1 = 0.653): 1.3425 ± 0.0027
- refractive index (m1 = 0.6999): 1.3432 ± 0.0027
- refractive index (m1 = 0.7919): 1.3442 ± 0.0027
- refractive index (m1 = 0.9206): 1.3459 ± 0.0027
- refractive index (m1 = 1.175): 1.3491 ± 0.0027
- refractive index (m1 = 1.18): 1.3491 ± 0.0027
- refractive index (m1 = 1.447): 1.3524 ± 0.0027
- refractive index (m1 = 1.794): 1.3565 ± 0.0027
- refractive index (m1 = 2.079): 1.3597 ± 0.0027
- refractive index (m1 = 2.396): 1.3629 ± 0.0027
- refractive index (m1 = 2.398): 1.3627 ± 0.0027
